According to patent US20100056560A1, “USE FOR TREATING OBESITY AND DIABETES” (priority 2006, published 2010):

Tested on: adiponectin
Assay: Expression of adiponectin in 3T3-L1 adipocytes (Western blot)
Type: cell-based, Mouse
Conditions: 3T3-L1, 100 μM isoflavone, 1 mM L-carnitine, 1 mM L-arginine, 100 ppm caffeine, 24 hours
Description: Mouse undifferentiated 3T3-L1 adipocytes) (purchased from ATCC) were cultured in 10% calf serum-containing DMEM (Dulbecco's modified Eagle's medium, Gibco 1210-0038) in a 10% CO2 incubator to a confluency of 70% while replacing the medium with a fresh medium at 2-day intervals. For differentiation into adipocytes, the cells were cultured in a medium (containing 10% fetal bovine serum, 0.5 mM 3-isobutyl-1-methyxanthine (Sigma), 1 μM dexamethasone (Sigma) and 167 nM insulin (Novo-Nordisk)) for 48 hours, and then the medium was replaced with a DMEM medium (containing 10% fetal bovine serum and 167 nM insulin), in which the cells were further cultured for 48 hours. Finally, the cells were further cultured in a medium (containing only 10% fetal bovine serum) for 48 hours, thus obtaining differentiated adipocytes.
The adipocytes, differentiated in the step 1, were cultured in a medium, containing 51 fatty acid-free calf serum, for 16 hours. On the next day, the cultured cells were washed three times with PBS, and then treated with each of 100 μM isoflavone, 1 mM L-carnitine, 1 mM L-arginine, 100 ppm caffeine and a mixture of 100 μM isoflavone+1 mM L-carnitine+1 mM L-arginine+100 ppm caffeine. After 24 hours of cell incubation, a protein was isolated from each of the media and subjected to Western blot analysis in order to examine a change in the expression of adiponectin.

Cn1c(=O)c2c(ncn2C)n(C)c1=O [caffeine]
expression of adiponectin: decrease in the expression of adiponectin
